Source: patent US9212139B2, “Aryl substituted indoles and their use as blockers of sodium channels” (Purdue Pharma, L.P., priority 2010, dated 2015)
Like-named read-outs stand apart in the source and are kept apart here.

Legend:
human Nav1.7 = human Nav1.7 (Homo sapiens (Human), UniProt Q15858); assay: FLIPR or FLIPR TETRA sodium dye assay with KCl and test article pre-incubation; format: cell-based
Source text: For dominant selection of the Nav1.7-expressing clones, the expression plasmid co-expressed the neomycin resistance gene. […] Recombinant beta and gamma subunits were not introduced into this cell line. Additional cell lines expressing recombinant Nav1.7 cloned from other species can also be used, alone or in combination with various beta subunits, gamma subunits or chaperones.
Cell maintenance: Unless otherwise noted, cell culture reagents were purchased from Mediatech of Herndon, Va. The recombinant Nav1.7/HEK293 cells were routinely cultured in growth medium consisting of Dulbecco's […] containing 10% fetal bovine serum (FBS, Hyclone, Thermo Fisher Scientific, Logan, Utah), 100 U/mL penicillin, […], 2-4 mM L-glutamine, and […]. For natural, non-recombinant cell lines, the selective antibiotic was omitted, and additional media formulations can be applied as needed.
The intensity of this emission, but not the wavelength range, is increased when the dye is exposed to Na^+ ions, which it can bind with partial selectivity. Cells expressing Nav1.7 or other sodium channels were loaded with the CoroNa™ Green dye immediately in advance of the fluorescence assay, and then, after agonist stimulation, the mobilization of Na^+ ions was detected as the Na^+ ions flowed from the extracellular fluid into the cytoplasm through the activated sodium channel pores. The dye was stored in the dark as a lyophilized powder, and then an aliquot was dissolved immediately before the cell loading procedure, according to the instructions of the manufacturer to a stock concentration of 10 mM in DMSO. It was then diluted in the assay buffer to a 4× concentrated working solution, so that the final concentration of dye in the cell loading buffer was 5 μM.
These scorpion toxins inhibit the fast inactivation of their cognate target channels. Stock solutions of the agonists were prepared to 40 mM in DMSO (veratridine) and 1 mg/mL in dH2O (scorpion venom), and then diluted to make a 4× or 2× stock (depending on the particular assay) in assay buffer, the final concentration being 100 μM (veratridine) and 10 μg/mL (scorpion venom). Both of the agonists were purchased from Sigma Aldrich, St. Louis, Mo.
Test Compounds: Test compounds were dissolved in DMSO to yield 10 mM stock solutions. […] If a particular test article appeared to be especially potent, then the concentration curve was adjusted, e.g., to 10-fold lower concentrations, in order to perform the dose-response in a more relevant concentration range. Compound dilutions were added during the dye-loading and pre-stimulation step, and then again during the fluorescence assay, early in the kinetic read.
Data Analysis: The data were analyzed according to methods known to those skilled in the art or using the GraphPad® Prism 4.0 Program (available from GraphPad Software, San Diego, Calif.) to determine the IC50 value for the test article. At least one standard reference compound was evaluated during each experiment.
FLIPR® or FLIPR^TETRA® sodium dye assay with KCl and test article pre-incubation: Cells were prepared by plating the recombinant HEK293 cells or other host cells expressing either recombinant or non-recombinant, native, Nav1.7 alpha subunit, alone or in combination with various beta and gamma subunits at a density of ˜40,000 cells/well into a 96-well black, clear-bottom, PDL-coated plate. The assay can be adapted to 384-well or 1,536-well format, if desired, using proportionately less cells and media. […] For counter-screens of other voltage-gated sodium channels, the procedure was very similar, though optimal densities of cells, media and subsequent assay components can be fine-tuned for the particular cell line or isoform.

hNav1.7 = hNav1.7 (Homo sapiens (Human), UniProt Q15858); assay: Electrophysiology (EP) assay, whole-cell patch clamp; format: cell-based; conditions: read-out: EP Nav1.7 Ki
Protocol: Cells: The hNav1.7 expressing HEK-293 cells were plated on 35 mm culture dishes pre-coated with poly-D-lysine in standard DMEM culture media (Mediatech, Inc., Herndon, Va.) and incubated in a 5% CO2 incubator at 37° C. Cultured cells were used approximately 12-48 hours after plating.
Electrophysiology: On the day of experimentation, the 35 mm dish was placed on the stage of an inverted microscope equipped with a perfusion system that continuously perfuses the culture dish with fresh recording media. A gravity driven superfusion system was used to apply test solutions directly to the cell under evaluation. This system consists of an array of glass pipette glass connected to a motorized horizontal translator. The outlet of the shooter was positioned approximately 100 μm from the cell of interest.
Gigaseals were formed and the whole-cell configuration was established in voltage clamp mode, and membrane currents generated by hNav1.7 were recorded in gap-free mode. […] Signals were sampled at 50 kHz and low pass filtered at 3 kHz.
The voltage clamp protocol to examine hNav1.7 currents was as follows. First, the standard current-voltage relationship was tested by pulsing the cell from the holding voltage (Vh) of −120 mV by a series of 5 msec long square-shaped test pulses incrementing in +10 mV steps over the membrane voltage range of −90 mV to +60 mV at the pace of stimulation of 0.5 Hz. This procedure determines the voltage that elicits the maximal current (Vmax). […] This procedure determines the voltage of full inactivation (Vfull). Third, the cell was repeatedly stimulated with the following protocol, first in the absence of the test compound then in its presence. The protocol consisted of depolarizing the cell from the holding potential of −120 mV to the Vfull value for 4.5 seconds then repolarizing the cell to the holding potential for 10 ms before applying the test pulse to the Vmax for 5 ms. The amount of inhibition produced by the test compound was determined by comparing the current amplitude elicited by the test pulse in the absence and presence of the compound.
Vehicle solution used to establish base line was also contacting 0.3% DMSO.
Data analysis: Data was analyzed off-line using Clampfit software (pClamp, v. 8; Axon Instruments) and graphed using GraphPad Prizm (v. 4.0) software.

[1] = read-out: FLIPR Nav1.7 IC50 (μM) ± SEM
[2] = sodium dye assay with KCl, recombinant human Nav1.7 in HEK293 cells, value ± SEM
[3] = whole-cell patch clamp, hNav1.7 expressing HEK-293 cells

hNav1.7, sequence (Q15858 other isoform, or with tags, fused parts or gaps): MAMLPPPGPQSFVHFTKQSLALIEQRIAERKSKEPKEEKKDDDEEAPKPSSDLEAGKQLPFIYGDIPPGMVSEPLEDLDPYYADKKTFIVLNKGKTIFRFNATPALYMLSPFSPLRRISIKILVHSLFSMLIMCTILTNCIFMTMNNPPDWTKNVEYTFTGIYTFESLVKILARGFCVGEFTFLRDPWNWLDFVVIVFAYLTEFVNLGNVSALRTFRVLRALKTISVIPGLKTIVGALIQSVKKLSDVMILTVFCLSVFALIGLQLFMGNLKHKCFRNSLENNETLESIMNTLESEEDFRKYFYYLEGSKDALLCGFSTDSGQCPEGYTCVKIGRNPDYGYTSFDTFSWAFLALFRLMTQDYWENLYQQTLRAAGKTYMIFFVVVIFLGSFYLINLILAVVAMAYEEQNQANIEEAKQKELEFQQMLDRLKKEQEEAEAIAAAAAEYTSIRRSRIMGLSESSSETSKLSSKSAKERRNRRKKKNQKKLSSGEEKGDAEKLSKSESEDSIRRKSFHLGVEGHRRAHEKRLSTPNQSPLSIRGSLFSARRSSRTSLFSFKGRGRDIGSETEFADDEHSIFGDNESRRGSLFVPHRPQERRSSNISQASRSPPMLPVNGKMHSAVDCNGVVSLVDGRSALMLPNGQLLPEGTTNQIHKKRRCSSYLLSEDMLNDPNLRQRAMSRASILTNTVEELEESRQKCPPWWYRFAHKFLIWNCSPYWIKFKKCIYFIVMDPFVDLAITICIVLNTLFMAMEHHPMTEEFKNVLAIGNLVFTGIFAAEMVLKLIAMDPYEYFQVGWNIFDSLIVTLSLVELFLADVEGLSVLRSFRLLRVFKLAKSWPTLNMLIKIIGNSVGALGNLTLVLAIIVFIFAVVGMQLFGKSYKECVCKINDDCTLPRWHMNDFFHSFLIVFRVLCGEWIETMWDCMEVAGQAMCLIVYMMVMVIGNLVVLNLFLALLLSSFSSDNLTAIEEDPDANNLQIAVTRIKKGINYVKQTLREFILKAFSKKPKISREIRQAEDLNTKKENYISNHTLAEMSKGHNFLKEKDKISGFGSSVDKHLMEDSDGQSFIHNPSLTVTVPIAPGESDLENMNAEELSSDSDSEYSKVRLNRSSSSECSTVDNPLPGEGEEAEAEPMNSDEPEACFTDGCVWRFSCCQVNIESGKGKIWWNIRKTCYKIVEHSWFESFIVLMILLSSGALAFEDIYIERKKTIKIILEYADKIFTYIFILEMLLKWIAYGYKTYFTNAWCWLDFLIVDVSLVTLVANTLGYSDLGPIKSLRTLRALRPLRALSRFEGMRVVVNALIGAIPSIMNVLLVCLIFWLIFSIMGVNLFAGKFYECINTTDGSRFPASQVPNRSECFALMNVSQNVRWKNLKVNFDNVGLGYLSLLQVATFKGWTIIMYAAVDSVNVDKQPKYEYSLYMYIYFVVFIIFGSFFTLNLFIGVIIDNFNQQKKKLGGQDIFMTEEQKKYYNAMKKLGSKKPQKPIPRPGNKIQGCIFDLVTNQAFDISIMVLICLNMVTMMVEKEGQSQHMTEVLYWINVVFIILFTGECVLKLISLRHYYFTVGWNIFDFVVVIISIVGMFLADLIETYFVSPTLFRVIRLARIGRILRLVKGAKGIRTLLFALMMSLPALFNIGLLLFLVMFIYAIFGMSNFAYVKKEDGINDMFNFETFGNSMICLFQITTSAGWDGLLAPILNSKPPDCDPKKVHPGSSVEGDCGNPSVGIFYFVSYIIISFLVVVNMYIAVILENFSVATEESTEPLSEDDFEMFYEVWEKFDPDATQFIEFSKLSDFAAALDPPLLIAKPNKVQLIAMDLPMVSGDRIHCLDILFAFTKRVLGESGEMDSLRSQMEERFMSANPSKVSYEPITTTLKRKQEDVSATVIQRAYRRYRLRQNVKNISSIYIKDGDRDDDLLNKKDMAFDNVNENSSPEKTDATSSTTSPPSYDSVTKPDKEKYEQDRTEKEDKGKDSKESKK
human Nav1.7, sequence (Q15858 other isoform, or with tags, fused parts or gaps): as above

NC(CO)Cc1c[nH]c2ccc(-c3ccc(Oc4ccccc4)cc3)cc12 (stereo not shown) [Compound 10, 2-Amino-3-[5-(4-phenoxyphenyl)-1H-indol-3-yl]propan-1-ol] gave an IC50 (human Nav1.7; [1]) of 0.296 ± 0.087 µM and a Ki (hNav1.7) of 0.36 µM.
With NC(=O)C(N)Cc1c[nH]c2ccc(-c3ccc(Oc4ccccc4)cc3)cc12 (stereo not shown) [Compound 8, 2-Amino-3-[5-(4-phenoxyphenyl)-1H-indol-3-yl]propionamide] the IC50 (human Nav1.7; [2]) was 0.399 ± 0.024 µM and the Ki (hNav1.7; [3]) was 0.67 µM.
In the case of NC(CO)Cc1cn(-c2ccc(Oc3ccccc3)cc2)c2ccccc12 (stereo not shown) [Compound 34, 2-Amino-3-[1-(4-phenoxyphenyl)-1H-indol-3-yl]propan-1-ol], the IC50 (human Nav1.7; [2]) is reported as 0.389 ± 0.081 µM and the Ki (hNav1.7; [3]) is reported as 0.26 µM.
Work on OC[C@@H](O)Cc1cn(C[C@H](O)CO)c2ccc(-c3ccc(Oc4ccc(F)cc4)cc3)cc12 [Compound 74, (2S,2′S)-3,3′-(5-(4-(4-Fluorophenoxy)phenyl)-1H-indole-1,3-diyl)bis(propane-1,2-diol)] yielded an IC50 (human Nav1.7; [2]) of 0.5 ± 0.091 µM and a Ki (hNav1.7; [3]) of 0.92 µM.
N#Cc1ccc(Oc2ccc(-n3cc(C[C@H](O)CO)c4ncccc43)cc2)cc1 [Compound 175, (S)-4-(4-(3-(2,3-Dihydroxypropyl)-1H-pyrrolo[3,2-b]pyridin-1-yl)phenoxy)benzonitrile] showed an IC50 (human Nav1.7; [2]) of 0.549 ± 0.197 µM and a Ki (hNav1.7; [3]) of 0.17 µM.
Work on NC(=O)c1cccc2c1c(C[C@H](O)CO)cn2-c1ccc(Oc2ccc(F)cc2)cc1 [Compound 122, (S)-3-(2,3-Dihydroxypropyl)-1-(4-(4-fluorophenoxy)phenyl)-1H-indole-4-carboxamide] yielded an IC50 (human Nav1.7; [2]) of 0.222 ± 0.036 µM and a Ki (hNav1.7; [3]) of 0.3 µM.
N#Cc1cc(Oc2ccc(-n3cc(C(O)C(=O)NC[C@H](O)CO)c4ccccc43)cc2)ccc1C(F)(F)F (stereo partly drawn) [Compound 69, 2-(1-(4-(3-Cyano-4-(trifluoromethyl)phenoxy)phenyl)-1H-indol-3-yl)-N—((S)-2,3-dihydroxypropyl)-2-hydroxyacetamide] was tested, and the IC50 (human Nav1.7; [2]) was 0.732 ± 0.113 µM and the Ki (hNav1.7; [3]) was 2.67 µM.
Work on NC(CO)Cc1c[nH]c2c(-c3ccc(Oc4ccccc4)cc3)cccc12 (stereo not shown) [Compound 22, 2-Amino-3-[7-(4-phenoxyphenyl)-1H-indol-3-yl]propan-1-ol] yielded an IC50 (human Nav1.7; [1]) of 0.151 ± 0.016 µM and a Ki (hNav1.7) of 0.83 µM.
NC(=O)c1nn(-c2ccc(Oc3ccc(C(F)(F)F)cn3)cc2)c2ccccc12 [Compound 155, 1-(4-((5-(Trifluoromethyl)pyridin-2-yl)oxy)phenyl)-1H-indazole-3-carboxamide] gave an IC50 (human Nav1.7; [1]) of 0.362 ± 0.06 µM and a Ki (hNav1.7) of 0.25 µM.
With NC(=O)C(O)c1cn(-c2ccc(Oc3ccc(C(F)(F)F)cn3)cc2)c2ccccc12 (stereo not shown) [Compound 195, 2-Hydroxy-2-(1-(4-((5-(trifluoromethyl)pyridin-2-yl)oxy)phenyl)-1H-indol-3-yl)acetamide] the IC50 (human Nav1.7; [2]) was 0.276 ± 0.011 µM.
In the case of CCN(CC)CCn1cc(C(O)C(N)=O)c2cc(-c3ccc(Oc4ccc(F)cc4)cc3)ccc21 (stereo not shown) [Compound 179, 2-(1-(2-(Diethylamino)ethyl)-5-(4-(4-fluorophenoxy)phenyl)-1H-indol-3-yl)-2-hydroxyacetamide], the IC50 (human Nav1.7; [2]) is reported as 0.912 ± 0.079 µM and the Ki (hNav1.7; [3]) is reported as 0.27 µM.
N#Cc1cc(Oc2ccc(-n3cc(C[C@@H](N)CO)c4ccccc43)cc2)ccc1C(F)(F)F [Compound 44, (R)-5-{4-[3-(2-Amino-3-hydroxypropyl)-1H-indol-1-yl]phenoxy}-2-(trifluoromethyl)benzonitrile] gave an IC50 (human Nav1.7; [2]) of 0.304 ± 0.046 µM and a Ki (hNav1.7; [3]) of 0.29 µM.
N#Cc1cc(Oc2ccc(-n3cc(C[C@H](O)CO)c4ccccc43)cc2)ccc1C(F)(F)F [Compound 54, (S)-5-{4-[3-(2,3-Dihydroxypropyl)-1H-indol-1-yl]phenoxy}-2-(trifluoromethyl)benzonitrile] gave an IC50 (human Nav1.7; [2]) of 0.21 ± 0.035 µM and a Ki (hNav1.7; [3]) of 0.07 µM.
For COC(=O)c1ccc2c(C(O)C(N)=O)cn(-c3ccc(Oc4ccc(C(F)(F)F)c(C#N)c4)cc3)c2c1 (stereo not shown) [Compound 65, Methyl 3-(2-amino-1-hydroxy-2-oxoethyl)-1-(4-(3-cyano-4-(trifluoromethyl)phenoxy)phenyl)-1H-indole-6-carboxylate], the IC50 (human Nav1.7; [2]) was 0.536 ± 0.129 µM and the Ki (hNav1.7; [3]) was 1.91 µM.
For N[C@H](CO)Cc1cn(-c2ccc(Oc3ccc(C(F)(F)F)cn3)cc2)c2ccccc12 [Compound 196, (S)-2-Amino-3-(1-(4-((5-(trifluoromethyl)pyridin-2-yl)oxy)phenyl)-1H-indol-3-yl)propan-1-ol], the IC50 (human Nav1.7; [2]) was 0.34 ± 0.023 µM.
For NC(=O)C(N)Cc1cn(-c2ccc(Oc3ccccc3)cc2)c2ccccc12 (stereo not shown) [Compound 35, 2-Amino-3-[1-(4-phenoxyphenyl)-1H-indol-3-yl]propionamide], the IC50 (human Nav1.7; [2]) was 0.278 ± 0.061 µM and the Ki (hNav1.7; [3]) was 0.04 µM.
In the case of NC(=O)Cn1cc(C[C@H](O)CO)c2cc(-c3ccc(Oc4ccc(F)cc4)cc3)ccc21 [Compound 186, (S)-2-(3-(2,3-Dihydroxypropyl)-5-(4-(4-fluorophenoxy)phenyl)-1H-indol-1-yl)acetamide], the IC50 (human Nav1.7; [2]) is reported as 0.717 ± 0.042 µM.
CN(C)CCc1cn(-c2ccc(Oc3ccccc3)cc2)c2ccc(C[C@H](N)CO)cc12 [Compound 48, (S)-2-Amino-3-[3-(2-(dimethylamino)ethyl)-1-(4-phenoxyphenyl)-1H-indol-5-yl]propan-1-ol] gave an IC50 (human Nav1.7; [2]) of 3.82 ± 1.02 µM and a Ki (hNav1.7; [3]) of 1.31 µM.
N#Cc1cc(Oc2ccc(-n3cc(C(O)CO)c4ccccc43)cc2)ccc1C(F)(F)F (stereo not shown) [Compound 51, 5-{4-[3-(1,2-Dihydroxyethyl)-1H-indol-1-yl]phenoxy}-2-(trifluoromethyl)benzonitrile] gave an IC50 (human Nav1.7; [1]) of 0.26 ± 0.009 µM.
